Laboratory results: patent publication US8227207B2, “Bioactive peptides derived from the proteins of egg white by means of enzymatic hydrolysis” (Consejo Superior de Investigaciones Cientifcas, priority 2004, dated 2012)
“Also recorded” adds a separate entry of the source. Residues, ends and D or L forms follow the SMILES beside them.

Tested on: spontaneously hypertensive rats (SHR)
Assay: Antihypertensive activity: systolic arterial pressure (tail cuff) in spontaneously hypertensive rats
Format: in vivo, rat
Procedure: The effect is studied of various identified peptides and of some products containing them (for example egg white hydrolysed with pepsin for 3 hours and the fraction of it less than 3000 Da) on the arterial pressure of spontaneously hypertensive rats (SHR) and Wistar-Kyoto rats (WKY) which are the normotense controls for the SHR.
This study is conducted with SHR (10) and WKY of 17-24 weeks old and weight between 300 and 350 g, coming from Charles River Laboratories España, S. A. The rats are kept in cages of five by five and maintained at a stable temperature of 25° C. with light-dark cycles of 12 hours, ingesting freely available water and food. In order to carry out the measurement of systolic arterial pressure (SAP) “tail cuff” equipment is used (Le5001, Letica) which automatically provides a digital value of the SAP and records and facilitates the cardiac frequency of the animals. Various measurements are made and the average of all of them is obtained in order to achieve a reliable value of the SAP. Before positioning the cuff and transducer in the tail of the rats, the rats are exposed to a temperature of close to 30° C. in order to facilitate dilation of the caudal artery. Also, in order to ensure the reliability of the measurement, the animals are made to get used to the procedure for two weeks prior to conducting each assay in question.
The administration of the products to be assayed is done by means of an intragastric probe in a time margin of between 9 and 10 o'clock in the morning. The SHR used for the study had SAP values of between 230 and 280 mm Hg. The WKY used for the study at that moment had SAP values of between 160 and 200 mm Hg. Measurements of the SAP were taken from the animals periodically, every 2 hours, up to 8 hours post-administration of the products to be assayed; in addition, a SAP measurement was taken 24 hours after the administration of those products. As negative control (in order to establish the circadian variation of the SAP in probed rats) the measurements of the SAP obtained in rats which had been administered 1 ml of water by means of intragastric probe were used. As positive control, the measurements of the SAP obtained in rats which had been administered 50 mg/kg of Captopril (prototype ACEI drug) by means of intragastric probe were used. This dose of Captopril was administered to each rat in a volume of 1 ml. In order to establish the effect of the unhydrolysed egg white on the arterial pressure of the animals, similar assays to those described above were conducted, in which the animals were treated by the same procedure with 200 mg/kg of previously freeze-dried egg white (reference).
The results obtained are grouped and the mean±the standard error of measurement (SEM) is obtained for a minimum of 9 homogenous assays. The data of the treated animals are always compared with the data deemed to be a negative control. In order to compare them and obtain the statistical significance, Student's t-test for unpaired data is used and the difference for values of p<0.05 is considered significant.

CC[C@H](C)[C@H](NC(=O)[C@@H]1CCCN1C(=O)[C@H](Cc1ccc(O)cc1)NC(=O)[C@H](CCCNC(=N)N)NC(=O)[C@H](CCC(=O)O)NC(=O)[C@H](CCC(=O)O)NC(=O)[C@H](C)NC(=O)[C@@H](N)Cc1ccc(O)cc1)C(=O)N[C@@H](CC(C)C)C(=O)O [SEQ. ID. N^o 6] (H-YAEERYPIL-OH; N-terminus and C-terminus assumed)
time of maximum drop in SAP after administration (intragastric probe): 6 h
drop in systolic arterial pressure (SAP) / anti-hypertensive activity (in words) (single administration by intragastric probe): possess anti-hypertensive activity; also recorded: significant dose-dependent drop in the SAP; also recorded: clear and pronounced anti-hypertensive effect; also recorded: display anti-hypertensive activity
